From the SangsterLogP compilation

Assay: method code SF-AS, from DOI: 10.1002/1520-6017(200012)89:12<1525::aid-jps3>3.0.co;2-t
Conditions: not given

logP | Structure (SMILES)
-0.1 | CC(=O)N(O)CCCCCNC(=O)CCC(=O)N(O)CCCCCNC(=O)CCC(=O)N(O)CCCCCNC=O
0.86 | CC(=O)N(O)CCCCCNC(=O)CCC(=O)N(O)CCCCCNC(=O)CCC(=O)N(O)CCCCCNC(=O)c1ccccc1
0.9 | CC(=O)N(O)CCCCCNC(=O)CCC(=O)N(O)CCCCCNC(=O)CCC(=O)N(O)CCCCCNC(=O)Cc1ccccc1
0.1 | CC(=O)NCCCCCN(O)C(=O)CCC(=O)NCCCCCN(O)C(=O)CCC(=O)NCCCCCN(O)C(C)=O
0.88 | CCCCC(=O)NCCCCCN(O)C(=O)CCC(=O)NCCCCCN(O)C(=O)CCC(=O)NCCCCCN(O)C(C)=O
-0.5 | CC(=O)N(O)CCCCCNC(=O)CCC(=O)N(O)CCCCCNC(=O)CCC(=O)N(O)CCCCCNC(=O)CCC(=O)O
0.42 | CCCC(=O)NCCCCCN(O)C(=O)CCC(=O)NCCCCCN(O)C(=O)CCC(=O)NCCCCCN(O)C(C)=O
0.26 | CCC(=O)NCCCCCN(O)C(=O)CCC(=O)NCCCCCN(O)C(=O)CCC(=O)NCCCCCN(O)C(C)=O

Same assay, conditions: pH 7.4

logD | Structure (SMILES)
1.09 | CCCCCCCC(=O)NCCCCCN(O)C(=O)CCC(=O)NCCCCCN(O)C(=O)CCC(=O)NCCCCCN(O)C(C)=O
1.1 | CCCCCC(=O)NCCCCCN(O)C(=O)CCC(=O)NCCCCCN(O)C(=O)CCC(=O)NCCCCCN(O)C(C)=O
